Assays:
[1] = Total bioavailability, in vitro (combination of ruminal bypass and post-ruminal digestibility, Boisen method)
[2] = Post-ruminal digestibility, in vitro (pharmaceutical dissolver, Boisen Test)
Experimental: Whereas, the term “post-ruminal digestibility” of a substance means the percentage amount by weight of substance that is freed from the coating exclusively in the post-ruminal tract, dissolving and so making it digestible or absorbable, with respect to the total amount by weight of the orally administered substance.
The experimental conditions of use were 39° C., 15 rpm, 8 hours presence in the solution with “ruminal” pH of about 6.8. • Daisy^II ANKOM: commercially available laboratory artificial rumen, for determining the degree of ruminal bypass. The experimental conditions of use were 39° C., 8 hours presence in ruminal conditions, buffer solution at “ruminal” pH with insertion of “ruminal inoculum” and re-creation of ruminal anaerobiosis according to a university procedure known to those skilled in the art. The pH normally tested in the quality control phase is 6.8. • Pharmaceutical dissolver for determining the degree of post-ruminal digestibility. The experimental conditions of use followed the procedure known to experts in the field as “Boisen Test” and, in particular, they were: • 39° C., 30 rpm, 2 h, buffer solution with “gastric” pH (2.0)+pepsin inoculum. • 39° C., 30 rpm, 4 h, buffer solution with “intestinal” pH (6.8)+pancreatine inoculum. • 39° C., 30 rpm, 18 h, buffer solution with “intestinal” pH (6.8)+lipase and bile extract inoculum. […]

[3] = Degree of ruminal bypass, in vitro (pharmaceutical dissolver / Daisy II ANKOM artificial rumen)
Experimental: In the context of the present invention, the term “ruminal by-pass” indicates the percentage amount by weight of substance reaching the animal post-ruminal area, namely the stomach and the intestine, with respect to the total amount by weight of the orally administered substance.
The experimental conditions of use were 39° C., 15 rpm, 8 hours presence in the solution with “ruminal” pH of about 6.8. • Daisy^II ANKOM: commercially available laboratory artificial rumen, for determining the degree of ruminal bypass. The experimental conditions of use were 39° C., 8 hours presence in ruminal conditions, buffer solution at “ruminal” pH with insertion of “ruminal inoculum” and re-creation of ruminal anaerobiosis according to a university procedure known to those skilled in the art. The pH normally tested in the quality control phase is 6.8. • Pharmaceutical dissolver for determining the degree of post-ruminal digestibility. The experimental conditions of use followed the procedure known to experts in the field as “Boisen Test” and, in particular, they were: • 39° C., 30 rpm, 2 h, buffer solution with “gastric” pH (2.0)+pepsin inoculum. • 39° C., 30 rpm, 4 h, buffer solution with “intestinal” pH (6.8)+pancreatine inoculum. • 39° C., 30 rpm, 18 h, buffer solution with “intestinal” pH (6.8)+lipase and bile extract inoculum.
Then the microgranules were subjected to an evaluation of the degree of ruminal by-pass, post-ruminal digestibility and total bioavailability using the Boisen method. For a complete description of the Boisen method, reference is made to the publication S. Boisen, J. A. Fernàndez “Prediction of total tract digestibility of energy feedstuffs and […] by in vitro analyses” Animal Feed Science Technology 68, 277-286, 1997.

[4] = theoretical administration of 100 g of choline chloride
[5] = theoretical administration of 200 g of product

For C[N+](C)(C)CCO.[Cl-] [Product A, choline chloride], the “Bioavailable Choline Chloride” value [1, 4] was 0 g, the “Bioavailable Choline Chloride” value [1, 5] was 0 g and the “Choline Chloride in faeces” value [2, 4] was 0 g. The “Choline Chloride in faeces” value [2, 5] was 0 g, the “Bypassed Choline Chloride” value [3, 4] was 0 g and the “Choline Chloride lost in the rumen in 8 h” value [3, 4] was 101 g. The “Bypassed Choline Chloride” value [3, 5] was 0 g and the “Choline Chloride lost in the rumen in 8 h” value [3, 5] was 198 g.

Source: patent publication US11395803B2, “Composition for controlled release of physiologically active substances and process for its preparation” (BIOSCREEN TECHNOLOGIES S.R.L., priority 2017, dated 2022)
